The format of this data set is in vitro ADME. Conditions: Landrace, pig, 3 % in mineral oil. As for the experimental part:
5. In Vitro Transdermal Delivery Analysis:
(1) Preparing penetration membranes from a swine skin: An ear skin of a 6-month-old Landrace pig was prepared and cleaned with deionized water. The upper skin of the pig ear was cut by a scalpel to remove the fat layer. Then, the pig ear was cut into a plurality of penetration membranes each having an area of 1.5×1.5 cm^2 and each having a thickness of 605 μm. The penetration membranes were soaked in phosphate buffer saline (PBS), were sealed in a bag, and were frozen for future use.
(2) Before experiment, the penetration membranes were unfrozen in PBS to room temperature such that the gaps between the keratinocyte cells returned to their natural state. The penetration membranes were fixed in a Franz-type diffusion cell (see FIG. 2). The diffusion area was 0.636 cm^2. To test the skin integrity, the upper and lower sections of the diffusion cell were filled with 50% ethanol+50% PBS. After removing bubbles from the lower chamber, a sample of 0.5 g was placed into the upper, donor cell, and 50% ethanol+50% PBS was placed into the lower, receptor cell having a volume of 5.3 mL. A thermostat water tank heater was used to control the water temperature to be 35° C.±1. Stirring was carried out by using a magnet to balance the drug concentration distribution in the receptor cell.
(3) Each experiment used 5 diffusion cells to obtain the average value. 50 μL was sampled from the receptor cell and analyzed by HPLC. The same amount of a physiological solution was filled back into the receptor cell to maintain the total volume in the receptor cell.
(4) The injected volume was 50 μL. The detection wavelength was 260 nm. A mixture of 88% methanol, 11% water, and 1% acetic acid was used as the mobile phase in isocratic elution. The flow rate of the mobile phase was 1.0 mL/min. OMC of 1 ppm, 10 ppm, 50 ppm, and 100 ppm and avobenzone standard solution were used to create a calibration curve. Each concentration was detected three times to obtain the average value. Peak-ABC Chromatography Data Handling System (manufactured by Great Tide Instruments, Taiwan) was used to capture and handle the signals. A sample of 50 μL was sampled from the receptor cell and analyzed by HPLC. Peak-ABC Chromatography Data Handling System was used to analyze the concentration for calculating the lag time and the flux.
The Franz-type diffusion cell system was used to assess the penetration characteristics of carrier-entrapped filters. […] The stratum corneum is an important barrier of the skin for resisting alien objects and is also a hindrance to transdermal delivery of an active constituent. During an initial stage of passage from the donor site to the receptor site through the skin, there is a lag time for the active constituent to penetrate the membrane of the saturated skin. After that, the active constituent remains in steady-state diffusion for a period of time during which the diffusion flux is not changed.
Assume the concentrations of the active constituent at the donor site and the receptor site of the penetration membrane are respectively Cv and Cr, the mechanism of initial transdermal absorption can be explained by Fick's first law of diffusion: J=dQ/Dt=DAK(Cv−Cr)/h
wherein J is the transdermal flux, Q is the cumulative penetration amount, D is the diffusion coefficient, A is the diffusional surface area, K is the partition coefficient, and h is the diffusional pathlength.
Since Cr is very small at the initial stage of penetration, DC=(Cv−Cr) arrpoximates Cv. The transdermal flux is in proportion to the concentration difference ([…]). Thus, the slope of an optimal line in a diagram obtained from the cumulative penetration quantity Q and the penetration time t is the transdermal flux J. The lag time parameter can be obtained by linear extrapolation to the intersection on X axis. […]

SMILES strings stand for the structures. Read-outs that look alike come from different tables or passages of the source.

This is an account of results in patent publication US9498412B2, “Method for producing microcapsules with a sun protection effect” (Greenjoy Biotech Co., Ltd., priority 2014, dated 2016).

For the compound `COc1ccc(C(=O)CC(=O)c2ccc(C(C)(C)C)cc2)cc1` [avobenzone], the lag time stood at 0.23 h. Further, for the setting “0 h”, the “Amount in receptor site” value came to 0 μg/cm^2 and the “Transdermal flux (%)” value was found to be 0%. Also, under “0.5 h”, the “Amount in receptor site” value came out at 0 μg/cm^2 and the “Transdermal flux (%)” value was determined as 0%. For the setting “1 h”, the “Amount in receptor site” value was 20.12 ± 2.19 μg/cm^2 and the “Transdermal flux (%)” value was 0.09 ± 0.01%. For the setting “2 h”, the “Amount in receptor site” value is reported as 48.21 ± 2.73 μg/cm^2 and the “Transdermal flux (%)” value was found to be 0.20 ± 0.01%. For the same compound, under “3 h”, the “Amount in receptor site” value is recorded as 84.85 ± 4.27 μg/cm^2 and the “Transdermal flux (%)” value came to 0.36 ± 0.02%. Besides, under “6 h”, the “Amount in receptor site” value worked out at 161.26 ± 3.74 μg/cm^2, the “Transdermal flux (%)” value stood at 0.68 ± 0.02% and the transdermal flux was 28.237 μg/cm^2·hr.
`CCCCC(CC)COC(=O)C=Cc1ccc(OC)cc1` (stereo not shown) [OMC, octyl methoxycinnamate] gave a lag time of 0.15 h. Further, for the setting “0 h”, the “Amount in receptor site” value came to 0 μg/cm^2 and the “Transdermal flux (%)” value was determined as 0%. For the setting “0.5 h”, the “Amount in receptor site” value is recorded as 0 μg/cm^2 and the “Transdermal flux (%)” value amounted to 0%. For the same compound, for the setting “1 h”, the “Amount in receptor site” value is listed as 31.84 ± 1.81 μg/cm^2 and the “Transdermal flux (%)” value turned out to be 0.13 ± 0.01%. In addition, under “2 h”, the “Amount in receptor site” value amounted to 65.15 ± 7.96 μg/cm^2 and the “Transdermal flux (%)” value stood at 0.28 ± 0.03%. For the setting “3 h”, the “Amount in receptor site” value is 121.97 ± 4.95 μg/cm^2 and the “Transdermal flux (%)” value came out at 0.52 ± 0.02%. The compound further displayed a transdermal flux (4 h) of 40.069 μg/cm^2·hr. Also, where the note is “6 h”, the “Amount in receptor site” value stood at 227.55 ± 12.94 μg/cm^2 and the “Transdermal flux (%)” value worked out at 0.96 ± 0.05%.
